Measured values from ChEMBL document CHEMBL1201862, “PubChem BioAssay data set” (2004).
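Test compounds were applied to cells in 96-well plates for 48 hours at 5 doses. GI50 is the concentration that inhibits growth by half.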 Calls of active or inactive are those of the source. Rule as the data show it: active = GI50 up to about 1.1 µM and inactive = higher.

Tests used:
Test in all cases: DTP human tumour cell line panel, 48 h
[1] = test system: HCT-116
[2] = test system: NCI-H23
[3] = test system: SK-OV-3
[4] = test system: NCI-H522
[5] = test system: SF-268
[6] = test system: OVCAR-4
[7] = test system: Malme-3M
[8] = test system: SF-295
[9] = test system: SF-539
[10] = test system: HT-29
[11] = test system: OVCAR-3
[12] = test system: U-251
[13] = test system: SNB-75
[14] = test system: M14
[15] = test system: UACC-62
[16] = test system: SK-MEL-5

| Compound | GI50 [1] | GI50 [2] | GI50 [3] | GI50 [4] | GI50 [5] | GI50 [6] | GI50 [7] | GI50 [8] | GI50 [9] | GI50 [10] | GI50 [11] | GI50 [12] | GI50 [13] | GI50 [14] | GI50 [15] | GI50 [16] |
| --- | --- | --- | --- | --- | --- | --- | --- | --- | --- | --- | --- | --- | --- | --- | --- | --- |
| CCOC(=O)C1=C(Nc2ccccc2)SCC1=O | > 100 µM (inactive) | > 100 µM (inactive) | > 100 µM (inactive) | > 100 µM (inactive) | > 100 µM (inactive) | 63.2 µM (inactive) | > 100 µM (inactive) | > 100 µM (inactive) | > 100 µM (inactive) | > 100 µM (inactive) | > 100 µM (inactive) | 10 µM (inactive) | > 100 µM (inactive) | > 100 µM (inactive) | > 100 µM (inactive) |  |
| CC(C)(C)C(=O)ON1N=NC2C3CC(OCc4ccccc4)(OCc4ccccc4)C(O3)C21 (stereo unspecified) |  | 19.6 µM (inactive) | 53.1 µM (inactive) |  | 29.1 µM (inactive) | 22.6 µM (inactive) | 16.3 µM (inactive) | 22.1 µM (inactive) | 16.3 µM (inactive) | 22.3 µM (inactive) | 16.9 µM (inactive) | 16.9 µM (inactive) | 24.1 µM (inactive) | 26.4 µM (inactive) | 18.5 µM (inactive) | 15.6 µM (inactive) |
| O=Cc1ccccc1OCCOc1cc(OCCOc2ccccc2C=O)c(OCCOc2ccccc2C=O)cc1OCCOc1ccccc1C=O | 21.9 µM (inactive) | 56.5 µM (inactive) | > 82.4 µM (inactive) | > 86.9 µM (inactive) | 52.1 µM (inactive) | 39.9 µM (inactive) | > 100 µM (inactive) |  | > 44.5 µM (inactive) | > 100 µM (inactive) | > 100 µM (inactive) | 12.6 µM (inactive) | 8.07 µM (inactive) | > 83.9 µM (inactive) | > 100 µM (inactive) | > 100 µM (inactive) |
| N#CC(C(=O)CCC(=O)Nc1cccc(C(F)(F)F)c1)c1ccccc1 (stereo unspecified) | > 100 µM (inactive) | > 100 µM (inactive) |  | > 100 µM (inactive) | > 100 µM (inactive) | > 100 µM (inactive) | > 100 µM (inactive) | > 100 µM (inactive) | > 100 µM (inactive) | > 100 µM (inactive) | > 100 µM (inactive) | > 100 µM (inactive) | > 100 µM (inactive) | > 100 µM (inactive) | > 100 µM (inactive) | > 100 µM (inactive) |
| O=C(CCCCCCCCCCc1ccccc1)C1=C(O)CC(O)CC1=O (stereo unspecified) | 43.3 µM (inactive) | 56.4 µM (inactive) | > 100 µM (inactive) | 33.4 µM (inactive) | > 100 µM (inactive) | 74.3 µM (inactive) |  | 56.8 µM (inactive) | 86.7 µM (inactive) | 47.6 µM (inactive) | 52.6 µM (inactive) | 55.1 µM (inactive) | > 100 µM (inactive) | 59.8 µM (inactive) | 59.8 µM (inactive) | 48 µM (inactive) |
| CCN(CC)C(=O)Cc1[nH][nH]c(=O)c1C(=O)N(CC)CC | > 100 µM (inactive) | > 100 µM (inactive) | > 100 µM (inactive) | > 100 µM (inactive) | > 100 µM (inactive) | > 100 µM (inactive) | > 100 µM (inactive) | > 100 µM (inactive) | > 100 µM (inactive) | > 100 µM (inactive) | > 100 µM (inactive) | > 100 µM (inactive) | > 100 µM (inactive) | > 100 µM (inactive) | > 100 µM (inactive) |  |
| CC(=O)CC(=O)/C=C/c1cccs1 | 40.7 µM (inactive) | > 100 µM (inactive) | > 100 µM (inactive) | 42.3 µM (inactive) | 45 µM (inactive) | 87.5 µM (inactive) | 58.2 µM (inactive) | > 100 µM (inactive) | 31.6 µM (inactive) | 58.9 µM (inactive) | > 100 µM (inactive) | > 100 µM (inactive) |  | 54.2 µM (inactive) | 44.6 µM (inactive) | 37.1 µM (inactive) |
| CN(C)CCNC(=O)c1cccc2nc3ccc4cccnc4c3nc12 | 0.0467 µM (active) | 0.294 µM (active) | 0.469 µM (active) |  | 0.298 µM (active) | 0.468 µM (active) |  | 0.644 µM (active) | 0.19 µM (active) | 0.208 µM (active) | 0.61 µM (active) | 0.405 µM (active) | 0.507 µM (active) | 0.631 µM (active) | 0.457 µM (active) | 0.343 µM (active) |
| CN/N=C(\C(=O)Nc1ccc(C)c(C)c1)C(C(=O)OC)c1nc2ccc([N+](=O)[O-])cc2nc1O (stereo unspecified) | > 100 µM (inactive) | > 100 µM (inactive) | > 100 µM (inactive) | 12.6 µM (inactive) | > 100 µM (inactive) | > 100 µM (inactive) |  | > 100 µM (inactive) | > 100 µM (inactive) | > 100 µM (inactive) |  | > 100 µM (inactive) | > 100 µM (inactive) | > 100 µM (inactive) | 83.8 µM (inactive) | > 100 µM (inactive) |
| O=c1[nH]c(=O)n(C2OC3COC2C3O)cc1F (stereo unspecified) |  | > 100 µM (inactive) | 48.1 µM (inactive) | > 100 µM (inactive) | > 100 µM (inactive) | > 100 µM (inactive) | > 100 µM (inactive) | > 100 µM (inactive) |  | > 100 µM (inactive) | > 100 µM (inactive) | > 100 µM (inactive) | > 100 µM (inactive) | > 100 µM (inactive) |  | > 100 µM (inactive) |
| COC(=O)CC1N/C(=N\C#N)N(CCc2c[nH]c3ccccc23)C1=O (stereo unspecified) | > 100 µM (inactive) | > 100 µM (inactive) | > 100 µM (inactive) |  | > 100 µM (inactive) | > 100 µM (inactive) |  | > 100 µM (inactive) | > 100 µM (inactive) | > 100 µM (inactive) | > 100 µM (inactive) | > 100 µM (inactive) | > 100 µM (inactive) | > 100 µM (inactive) | > 100 µM (inactive) | > 100 µM (inactive) |
| CC(=O)NC(CCCCN(Cc1ccccc1)C(=O)NCCCl)C(=O)NCc1ccccc1 (stereo unspecified) | > 100 µM (inactive) | > 100 µM (inactive) |  | > 100 µM (inactive) | > 100 µM (inactive) | > 100 µM (inactive) | > 100 µM (inactive) | > 100 µM (inactive) | > 100 µM (inactive) | > 100 µM (inactive) | > 100 µM (inactive) | > 100 µM (inactive) | > 100 µM (inactive) | > 100 µM (inactive) | > 100 µM (inactive) |  |
| Nc1ncnc2c1ncn2C1CC(OC2CCCCO2)C(CO)O1 (stereo unspecified) | > 100 µM (inactive) | > 100 µM (inactive) | > 100 µM (inactive) | > 100 µM (inactive) | > 100 µM (inactive) | > 100 µM (inactive) | > 100 µM (inactive) | > 100 µM (inactive) | > 100 µM (inactive) | > 100 µM (inactive) | > 100 µM (inactive) | > 100 µM (inactive) |  | > 100 µM (inactive) |  |  |
| O=C1Nc2cc([N+](=O)[O-])c(Br)cc2C1=O |  | 17.3 µM (inactive) | 17.5 µM (inactive) | 16.6 µM (inactive) | 20.9 µM (inactive) | 16.4 µM (inactive) | 22.5 µM (inactive) | 3.68 µM (inactive) | 22.4 µM (inactive) | 20.2 µM (inactive) | 18.1 µM (inactive) | > 10 µM (inactive) | 19 µM (inactive) | 16.6 µM (inactive) | 18.7 µM (inactive) | 21.1 µM (inactive) |
| CCOC(=O)CN1C(=O)c2cccc3cc([N+](=O)[O-])cc(c23)C1=O | 1.63 µM (inactive) | 2.04 µM (inactive) | 26.2 µM (inactive) |  | 3.37 µM (inactive) | 1.85 µM (inactive) | 2.45 µM (inactive) |  | 3.57 µM (inactive) | 12.1 µM (inactive) | 4.7 µM (inactive) | 7.55 µM (inactive) | 10.4 µM (inactive) | 3.35 µM (inactive) | 2.4 µM (inactive) | 12.4 µM (inactive) |
| CCOc1cccc2c1N[S@@](=O)S2 | > 100 µM (inactive) | > 100 µM (inactive) | > 100 µM (inactive) | 55.5 µM (inactive) | > 100 µM (inactive) |  | > 100 µM (inactive) | 80.4 µM (inactive) | > 100 µM (inactive) | > 100 µM (inactive) | > 100 µM (inactive) | 47.8 µM (inactive) | > 100 µM (inactive) | > 100 µM (inactive) | 49.2 µM (inactive) |  |
| Cc1c2cc[n+](COC(=O)c3ccccc3)cc2c(C)c2c1[nH]c1ccccc12 | 0.298 µM (active) | 0.849 µM (active) | 1.39 µM (inactive) | 1.08 µM (active) | 0.571 µM (active) | 0.587 µM (active) | 1.46 µM (inactive) | 0.491 µM (active) | 0.416 µM (active) | 0.453 µM (active) | 1.37 µM (inactive) | 0.515 µM (active) |  |  | 1.5 µM (inactive) | 1.36 µM (inactive) |
| O=C(Nc1cccc(Cl)c1)C(=O)C(C(=O)c1ccc2ccccc2c1)C1OC(=O)c2ccccc21 (stereo unspecified) | 12.6 µM (inactive) | 7.94 µM (inactive) | 24.6 µM (inactive) | > 10 µM (inactive) | 7.29 µM (inactive) | 8.41 µM (inactive) | 13.1 µM (inactive) |  | 7.8 µM (inactive) | 31.9 µM (inactive) | 14.7 µM (inactive) | 5.4 µM (inactive) | 5.31 µM (inactive) | 16 µM (inactive) | 15.3 µM (inactive) | 14.7 µM (inactive) |
| CN[C@@H](C)[C@H](N)c1ccccc1 | > 100 µM (inactive) | > 100 µM (inactive) | > 100 µM (inactive) | > 100 µM (inactive) |  |  |  | > 100 µM (inactive) | > 100 µM (inactive) | > 100 µM (inactive) | > 100 µM (inactive) | > 100 µM (inactive) | > 100 µM (inactive) | > 100 µM (inactive) | > 100 µM (inactive) | > 100 µM (inactive) |
